Results as given in PMC3022525, “Analysis of LhcSR3, a Protein Essential for Feedback De-Excitation in the Green Alga Chlamydomonas reinhardtii” (PLoS Biology, 2011).

Assays:
LhcSR3 [1] = target: T1, LhcSR3 (Chlamydomonas reinhardtii, UniProt P0DO19); test: […]-DCCD labelling, SDS-PAGE autoradiography, densitometry; format: binding; details: covalent; labelled compound; protonatable residues
T1 construct: gene LHCSR3.1; precursor 259 residues
T1 sequence (P0DO19 46-259 limits assumed): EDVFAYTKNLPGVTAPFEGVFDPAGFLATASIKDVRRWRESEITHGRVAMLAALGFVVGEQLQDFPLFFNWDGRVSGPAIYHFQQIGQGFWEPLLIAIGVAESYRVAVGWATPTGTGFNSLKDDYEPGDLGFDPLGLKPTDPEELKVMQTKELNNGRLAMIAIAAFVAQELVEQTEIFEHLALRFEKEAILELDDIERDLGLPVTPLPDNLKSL

LhcSR3 [2] = target: T1, LhcSR3; test: in vitro reconstitution, HPLC pigment analysis, Soret spectral deconvolution; format: binding
[3] = refolded with Chl a, Chl b, lutein and violaxanthin (LV complex), sites L1/L2 proposed

Row | SMILES | in vitro reconstitution, HPLC pigment analysis, Soret spectral deconvolution (LhcSR3 [2]; [3]) | also measured
1 | C(=NC1CCCCC1)=NC1CCCCC1 [DCCD] |  | 14C-DCCD labelling, SDS-PAGE autoradiography, densitometry (LhcSR3 [1]): LhcSR3 revealed very efficient binding of DCCD, higher than plant CP29
2 | CC1=C[C@H](O)CC(C)(C)[C@H]1/C=C/C(C)=C/C=C/C(C)=C/C=C/C=C(C)/C=C/C=C(C)/C=C/C1=C(C)C[C@@H](O)CC1(C)C [lutein] | lutein and violaxanthin bound to the apoprotein | 
3 | CC(/C=C/C=C(C)/C=C/[C@@]12O[C@]1(C)C[C@@H](O)CC2(C)C)=C\C=C\C=C(C)\C=C\C=C(C)\C=C\[C@@]12O[C@]1(C)C[C@@H](O)CC2(C)C [violaxanthin] | lutein and violaxanthin bound to the apoprotein | 
4 | CC1=C(/C=C/C(C)=C/C=C/C(C)=C/C=C/C=C(C)/C=C/C=C(C)/C=C/C2=C(C)C[C@@H](O)CC2(C)C)C(C)(C)C[C@H](O)C1 [zeaxanthin] |  | in vitro reconstitution, HPLC pigment analysis, Soret spectral deconvolution (LhcSR3 [2]; refolded with zeaxanthin present besides lutein and violaxanthin (LVZ complex), several sites): implying that Zea entered the three sites, although to different extents
